Measured values from patent US12004506B2, “Pharmaceutical composition comprising a cyclic peptide of formula X1-[sequence]-X2 and use for extracorporeal lung treatment” (priority 2013, dated 2024).
Where two headings read alike, the source gives them in different places. Bridges are numbered along the chain shown (N, C = ends). Where no end group is shown, it is not given here.

Experiments:
[1] = tested on: sodium ion current in A549 cells (deglycosylated cell surface); assay: Patch clamp assay, whole cell mode, on A549 cells deglycosylated with PNGase F; assay type: cell-based, human; settings: 240 nM peptide, Eh -100 mV; for Whole cell current, pre-treatment with PNGase F: A549
Procedure: In whole cell mode experiments as described above, A549 cells were incubated with “PNGase enzyme F” (Peptide-N^4-(N-acetyl-β-D-glucosaminyl)asparagine amidase F) 100 units for 1-5 minutes immediately prior to the patch clamp measurements and glass cover slips with the cultured cells were rinsed with external solution before being transferred to the chamber of the 1 mL bath.
The results of the deglycosylation experiments using the patch clamp assay in whole cell mode are presented in Table IV, wherein the effect of deglycosylation of A549 cells on activation of sodium ion current by peptides of SEQ ID NO:1 to SEQ ID NO:7 is indicated. Whole cell currents were recorded at Eh=−100 mV.

[2] = tested on: sodium ion current in A549 cell line; settings: for activity on sodium ion current (in words): A549, patch clamp
Procedure: Experiments were carried out on the human epithelial cell line A549 (ATTAC Nr. CCL-185) in passages 80-90. Cells were grown in Dulbecco's modified Eagle's medium/nutrient mixture F12 Ham, supplemented with 10% fetal bovine serum and containing 1% penicillin-streptomycin. All culture media were purchased from Sigma-Aldrich GmbH (St. Louis, MO).
Currents were recorded with the patch clamp method in the whole-cell mode. Glass cover slips with the cultured cells were transferred to a chamber of 1 ml capacity, mounted on the stage of an inverted microscope (Zeiss, Axiovert 100). The chamber contained 1 ml of the bath solution of the following composition (in mM): 145 NaCl, 2.7 KCl, 1.8 CaCl2), 2 MgCl2, 5.5 glucose and 10 HEPES, adjusted to pH 7.4 with 1 M NaOH solution. Micropipettes were pulled from thin-walled borosilicate glass capillaries (World Precision Instruments, Inc., FL, USA) with a Flaming Brown micropipette puller (P87, Sutter Instruments, CA, USA) and polished on a microforge (Narishige, Tokyo, Japan) to obtain electrode resistances ranging from 2.0 to 3.5 MΩ. […] Chemicals for pipette and bathing solutions were supplied by Sigma-Aldrich (Vienna, Austria). Electrophysiological measurements were carried out with an Axopatch 200B patch clamp amplifier (Axon Instruments, CA, USA). Capacity transients were cancelled, and series resistance was compensated. Whole cell currents were filtered at 5 kHz and sampled at 10 KHz. Data acquisition and storage were processed directly to a PC equipped with pCLAMP 10.0 software (Axon Instruments, CA, USA).
After GΩ-seal formation, the equilibration period of 5 min was followed by control recordings at holding potentials (Eh) between −100 and +100 mV in 20 mV increments for 1 min at each Eh. […] The wash-in phase lasted about 1 min. […] Concentration-response curves and EC50-values were fitted and estimated for currents recorded at Eh of −100 mV with SigmaPlot 9.0. […] Subsequent addition of 10 mM tetraethylammonium chloride (TEA) indicated whether any observed increases in the current were due to potassium current. […]

[3] = tested on: sodium ion current in A549 cells (deglycosylated cell surface); assay: Patch clamp assay, whole cell mode, on A549 cells deglycosylated with PNGase F; assay type: cell-based, human; settings: 240 nM peptide, Eh -100 mV
[4] = tested on: non-ischemic pig donor lung; assay: Ex vivo lung perfusion (EVLP) of non-ischemic pig donor lungs, inhalative application; settings: pulmonary application
Procedure: Brain death pigs were turned into dorsal position, and a longitudinal sternotomy was performed. The pericardium and both pleural cavities were opened. […] An inflow catheter was placed in the pulmonary artery through a purse-string on the right ventricular outflow tract.
The lungs (non-ischemic) were then preserved with an ante grade flush of cold isotonic preservation solution (50 ml per kg body weigh of pig, containing potassium ions, sodium ions, magnesium ions, calcium ions, chloride ions, dextran, glucose, buffering ions) through the inflow catheter. Incision of the left auricular appendix provides outflow. The lungs were ventilated during this period with 50% oxygen, and iced slush were placed in both pleural cavities and mediastinum.
The explanation technique was en bloc harvesting with heart and esophagus according to the following steps: • a) Dissection of soft tissue bridges to the thoracic cavity on both sides of the trachea. • b) Transsection of both pulmonal ligaments (very deep, difficult exposure), then of the VCI, the lower thoracic descendent aorta and the esophagus, respectively. • c) Blunt separation from remaining mediastinal adhesions. • d) Complete inflation of the donor lung prior of tracheal closure with a stapler.
After explantation, the lungs were wrapped in gauze, placed in an insulated ice bag filled with low-potassium dextran extracellular solution, and stored at 4° C. for 18 to 24 hours. A temperature probe was submerged in the container, which will be placed in a refrigerator.
For ex-vivo lung conditioning, the EVLP technique ([…]) was used. In the EVLP technique, donor lungs are placed into a circuit composed of a pump, ventilator and filters. EVLP technique, the temperature may increased up to 37 °C. In the EVLP, a ventilator is used to deliver oxygen to the lungs. The pump is used to perfuse the lungs with an extracellular solution containing human albumin and nutrition. During EVLP, the lung function can be evaluated regularly on key indicators. […]

Compound | Whole cell current, pre-treatment with PNGase F [1] | further results
C[C@@H]1NC(=O)CNC(=O)[C@H](CCC(=O)O)NC(=O)[C@@H]2CCCN2C(=O)[C@H]([C@@H](C)O)NC(=O)[C@H](CCC(=O)O)NC(=O)[C@H](CCCNC(=N)N)NC(=O)[C@H](CCC(N)=O)NC(=O)CNC(=O)[C@@H](N)CCCCNC(=O)CNC(=O)[C@H](Cc2ccc(O)cc2)NC(=O)[C@H](Cc2c[nH]c3ccccc23)NC(=O)[C@@H]2CCCN2C(=O)[C@H](CCCCN)NC(=O)[C@H](C)NC(=O)[C@H](CCC(=O)O)NC1=O [SEQ ID NO: 3] | 20.6 pA (n = 3) | –
C[C@@H]1NC(=O)CNC(=O)[C@H](CCC(=O)O)NC(=O)[C@@H]2CCCN2C(=O)[C@H]([C@@H](C)O)NC(=O)[C@H](CCC(=O)O)NC(=O)[C@H](CCCNC(=N)N)NC(=O)[C@H](CCC(N)=O)NC(=O)CNC(=O)[C@@H](N)CCCNC(=O)CNC(=O)[C@H](Cc2ccc(O)cc2)NC(=O)[C@H](Cc2c[nH]c3ccccc23)NC(=O)[C@@H]2CCCN2C(=O)[C@H](CCCCN)NC(=O)[C@H](C)NC(=O)[C@H](CCC(=O)O)NC1=O [SEQ ID NO: 4] | 22.5 pA (n = 3) | –
C[C@@H]1NC(=O)CNC(=O)[C@H](CCC(=O)O)NC(=O)[C@@H]2CCCN2C(=O)[C@H]([C@@H](C)O)NC(=O)[C@H](CCC(=O)O)NC(=O)[C@H](CCCNC(=N)N)NC(=O)[C@H](CCC(N)=O)NC(=O)CNC(=O)CCCNC(=O)C[C@@H](C(=O)O)NC(=O)[C@H](Cc2ccc(O)cc2)NC(=O)[C@H](Cc2c[nH]c3ccccc23)NC(=O)[C@@H]2CCCN2C(=O)[C@H](CCCCN)NC(=O)[C@H](C)NC(=O)[C@H](CCC(=O)O)NC1=O [SEQ ID NO: 5] | 22.4 pA (n = 3) | –
Cyclo(CGQREAPAGAAAKPWYC) (disulfide 1-17) [SEQ ID NO: 7, reference compound] | no avtivity | activity in deglycosylation experiments (in words) [1]: no activity; activity on sodium ion current (in words) [2]: no activity; activity on sodium ion current (in words) ([2]; listed as SEQ ID NO:7): did not show activity; EC50 (nM) on cellular sodium ion current ([2]; A549, whole cell recording, Eh -100 mV): no activity; Whole cell current, no pre-treatment with PNGase F [3]: no activity; effects on lung function [4]: did not provide improving effects
C[C@@H]1NC(=O)CNC(=O)[C@H](CCC(=O)O)NC(=O)[C@@H]2CCCN2C(=O)[C@H]([C@@H](C)O)NC(=O)[C@H](CCC(=O)O)NC(=O)[C@H](CCCNC(=N)N)NC(=O)[C@H](CCC(N)=O)NC(=O)CNC(=O)CCNC(=O)CC[C@@H](C(=O)O)NC(=O)[C@H](Cc2ccc(O)cc2)NC(=O)[C@H](Cc2c[nH]c3ccccc23)NC(=O)[C@@H]2CCCN2C(=O)[C@H](CCCCN)NC(=O)[C@H](C)NC(=O)[C@H](CCC(=O)O)NC1=O [SEQ ID NO: 6] | 19.9 pA (n = 3) | –
C[C@@H]1NC(=O)CNC(=O)[C@H](CCC(=O)O)NC(=O)[C@@H]2CCCN2C(=O)[C@H]([C@@H](C)O)NC(=O)[C@H](CCC(=O)O)NC(=O)[C@H](CCCNC(=N)N)NC(=O)[C@H](CCC(N)=O)NC(=O)CNC(=O)[C@@H]2CCCN2C(=O)[C@H](CO)NC(=O)[C@@H](N)CCCCNC(=O)CC[C@@H](C(=O)O)NC(=O)[C@H](Cc2ccc(O)cc2)NC(=O)[C@H](Cc2c[nH]c3ccccc23)NC(=O)[C@@H]2CCCN2C(=O)[C@H](CCCCN)NC(=O)[C@H](C)NC(=O)[C@H](CCC(=O)O)NC1=O [SEQ ID NO: 2] | 21.3 pA (n = 3) | –
